Data taken from PMC6302136, “Quantitative Chemotherapeutic Profiling of Gynecologic Cancer Cell Lines Using Approved Drugs and Bioactive Compounds^” (Translational Oncology, 2018).
Like-named read-outs stand apart in the source and are kept apart here. *1 amine or outer side, *2 acyl side, *3 side chain or, on linkers, in order; H or OH if unused. Where a SMILES comes first, the peptide text is derived from it. Bridges are numbered along the chain shown (N, C = ends). Roman numbers before positions name the chains, in order. [ ]: non-standard residue; d: D form. Actinocin(9to1) = Cc1c2oc3c(C)ccc(C(=O)[*:1])c3nc-2c(C(=O)[*:2])c(N)c1=O; NMeV = CN[C@H](C(=O)O)C(C)C; Sar = CNCC(=O)O

Assays:
[1] = system: 11 gynecologic cancer cell lines; assay: qHTS ATPlite cell viability, gynecologic cancer cell lines (ovarian, cervical, placental); type: cell-based, human; settings: for IC90 / IC50: Homo sapiens; for Cell Lines Active: number of the 11 cancer cell lines in which the compound is active (<1 μM potency, >70% efficacy)
Description: (§1) The ATPlite luminescence assay system assay kit was used to determine cell viability. The reagent was reconstituted and prepared as described by the manufacturer. To measure the cell death caused by the compounds, cells were cultured in 4 μl of media for 16 hours at 37°C with 5% CO2 in assay plates, followed by the addition of DMSO or 16 SOC chemotherapeutic compounds dissolved in DMSO. SOC compounds were dosed at 11 concentrations (1:3 dilution) in quadruplicate from 57.5 μM to 0.977 nM using the automated Wako 1536 Pin Tool workstation and incubated at 37°C with 5% CO2 for 24, 48, or 72 hours. Four microliters of ATPlite, the ATP monitoring reagent, was then added to each well of the assay plates using the Multidrop Combi reagent dispenser followed by incubation for 15 minutes at room temperature. The resulting luminescence was measured using the ViewLux plate reader. Data were normalized for each drug using the largest luminescence value as 100% full cell viability (0% cell killing) and to the smallest luminescence value 0% viability (100% cell killing).
(§2) A qHTS [79], in which each compound was assayed in five concentrations (0.092, 0.46, 2.3, 11.5, and 57.5 μM), was performed for the primary compound screen using the NPC [80] and NPACT drug libraries at NCATS. The OBGYN cancer and HEK 293T control cells were seeded into 1536-well assay plates at 1000 cells per 4 μl/well and incubated at 37°C in 5% CO2 for 48 hours. The ATPlite assay to determine the IC50 values for each compound was conducted as described above. Plates were processed on the fully integrated Kalypsys robotic system.

[2] = system: ovarian and placental cancer cell lines; assay: qHTS ATPlite cell viability, ovarian + placental cancer cell lines; type: cell-based, human; settings: for IC50: Homo sapiens, 48 h; for Average SI: vs HEK 293T, >100 = inactive in HEK293T
Description: as §1, §2

[3] = cited from earlier work
[4] = system: ovarian and cervical cancer cell lines; assay: qHTS ATPlite cell viability, ovarian + cervical cancer cell lines; type: cell-based, human; settings: Ovarian + cervical cancer cell line killer
Description: A qHTS [79], in which each compound was assayed in five concentrations (0.092, 0.46, 2.3, 11.5, and 57.5 μM), was performed for the primary compound screen using the NPC [80] and NPACT drug libraries at NCATS. […]

[5] = system: CAOV-3 cells; assay: ATP content (ATPlite) cell viability assay in CAOV-3 cells; type: cell-based, human; settings: assay optimization
Description: as §1

[6] = system: PA-1 cells; assay: ATP content (ATPlite) cell viability assay in PA-1 cells; type: cell-based, human; settings: assay optimization, read-out: IC50 (PA-1)
[7] = system: HDAC 1/2/3; settings: against HDAC 1/2/3 only; cited from earlier work
[8] = system: ovarian cancer cell lines; assay: qHTS ATPlite cell viability, ovarian cancer cell lines; type: cell-based, human
[9] = system: TOV-21-G cells; assay: qHTS ATPlite cell viability, TOV-21-G cells; type: cell-based, human; settings: for IC50: Homo sapiens, TOV21G, 48 h; for Avg SI: TOV-21-G selective compounds, vs HEK 293T, >100 = inactive in HEK293T
[10] = system: HDAC 1/2/3/11; settings: inhibits only HDAC 1/2/3/11; cited from earlier work
[11] = system: cervical cancer cell lines (HeLa, Ca Ski, C-33 A); assay: qHTS ATPlite cell viability, cervical cancer cell lines; type: cell-based; settings: Homo sapiens
[12] = system: placental cancer cell lines (JAR, JEG-3); assay: qHTS ATPlite cell viability, placental cancer cell lines; type: cell-based, human; settings: Homo sapiens, JEG-3; read-out: IC50 for the placental lines
Description: as §1
The ATPlite assay to determine the IC50 values for each compound was conducted as described above. Plates were processed on the fully integrated Kalypsys robotic system.

[13] = system: HEK 293T cells; design: method as in PMID 31498718; settings: CellTiterGlo, cited from earlier work
[14] = system: HEK 293T cells; assay: cells; settings: 48 h
Description: as §1, §2

[15] = Ovarian + placental cancer cell line killer
[16] = average IC90 over the cell lines in which the compound is active, read-out: IC90
[17] = Pan-GYN cancer cell line killer, vs HEK 293T, >100 = inactive in HEK293T (efficacy <50%)

## Cc1c2oc3c(C)ccc(C(=O)N[C@@H]4C(=O)N[C@H](C(C)C)C(=O)N5CCC[C@H]5C(=O)N(C)CC(=O)N(C)[C@@H](C(C)C)C(=O)O[C@@H]4C)c3nc-2c(C(=O)N[C@@H]2C(=O)N[C@H](C(C)C)C(=O)N3CCC[C@H]3C(=O)N(C)CC(=O)N(C)[C@@H](C(C)C)C(=O)O[C@@H]2C)c(N)c1=O [Actinomycin D] (I: T[dV]P[Sar][NMeV] / II: T[dV]P[Sar][NMeV]; ester I:1-I:C, II:1-II:C; linker I:N-II:N via Actinocin(9to1))
[1]; read-out: average IC90
  IC90: 512 nM
[2]; read-out: Average IC50 (μM)
  IC50: 0.78 ± 0.222 µM
[2]; [15]
  Average SI: >100
[2]; Ovarian + placental cancer cell line killer, listed as actinomycin D
  Average SI: > 100

## CC(C)C[C@H](NC(=O)[C@H](Cc1ccccc1)NC(=O)c1cnccn1)B(O)O [Bortezomib]
[3]; intravenous dose, read-out: Cmax
  Cmax: 580 nM
[1]; [16]
  IC90: 218 nM
[1]; average over the cell lines in which the compound was active, read-out: average IC50
  IC50: 0.15 µM
[1]
  Cell Lines Active: 8

## Cc1cc(CN2CCN(c3c(Br)cnc4nc(-c5ccc(N6CCN(C)CC6)cc5)[nH]c34)CC2)no1 [CCT137690]
[4]; mean of cell lines fulfilling criteria, 48 h
  IC50: 20000 ± 7020 nM
[4]; vs HEK 293T, >100 = inactive in HEK293T
  Average SI: >100

## CC(=O)OC(C)(C)/C=C/C(=O)[C@](C)(O)[C@H]1[C@H](O)C[C@@]2(C)[C@@H]3CC=C4[C@H](C[C@H](O)C(=O)C4(C)C)[C@]3(C)C(=O)C[C@]12C [Curcubitacin B]
[5]; 24 hours incubation
  IC50: 18.1 nM
[5]; 48 hours incubation
  IC50: ~20.6 nM
[5]; 72 hours incubation
  IC50: 22.2 nM
[6]; 48 hours incubation
  IC50: 63.2 nM
[6]; 72 hours incubation
  IC50: 61.8 nM

## Nc1ccccc1NC(=O)c1ccc(CNC(=O)OCc2cccnc2)cc1 [Entinostat]
[3]; humans, 15 mg, read-out: Cmax
  Cmax: 460 nM
[7]
  potency of HDAC inhibition: submicromolar potency
[1]; Pan-GYN cancer cell line killer, mean of all cell lines fulfilling criteria, 48 h, read-out: Average IC50
  IC50: 7.11 ± 6.62 µM
[1]; [17]
  Average SI: >100
[1]; Pan-GYN cancer cell line killer, vs HEK 293T, >100 = inactive in HEK293T (efficacy <50%), listed as entinostat
  Average SI: > 100

## Cc1cnc(Nc2ccc(OCCN3CCCC3)cc2)nc1Nc1cccc(S(=O)(=O)NC(C)(C)C)c1 [Fedratinib]
[8]; SI of 5 or greater, six ovarian lines
  selective killing of ovarian cancer lines: selectivity killed all six ovarian cancer lines
[2]; Ovarian + placental cancer cell line killer, mean of cell lines fulfilling criteria, read-out: Average IC50
  IC50: 13.1 ± 7.51 µM
[2]; [15]
  Average SI: >100
[2]; Ovarian + placental cancer cell line killer, listed as fedratinib
  Average SI: > 100

## CNC(=O)c1nn(C)c2c1C(C)(C)Cc1cnc(Nc3ccc(N4CCN(C)CC4)cc3)nc1-2 [Milciclib, N,1,4,4-tetramethyl-8-{[4-(4-methylpiperazin-1-yl)phenyl]amino}-4,5-dihydro-1H-py razolo[4,3-h]quinazoline-3-carboxamide]
[9]; TOV-21-G, confirmation screen, read-out: Avg IC50
  IC50: 0.0897 µM
[9]
  Avg SI: 50.1

## Nc1ccccc1NC(=O)c1ccc(CNc2nccc(-c3cccnc3)n2)cc1 [Mocetinostat]
[3]; 10 mg/kg, in humans, read-out: Cmax
  Cmax: ~21400 nM
[3]; 40 mg/kg, in humans, read-out: Cmax
  Cmax: 75700 nM
[10]
  potency of HDAC inhibition: low micromolar potency or below
[1]; 48 h, read-out: Average IC50 (μM)
  IC50: 2.76 ± 1.98 µM
[1]; [17]
  Average SI: >100
[1]; Pan-GYN cancer cell line killer, vs HEK 293T, >100 = inactive in HEK293T (efficacy <50%), listed as mocetinostat
  Average SI: > 100

## CCOc1cc2ncc(C#N)c(Nc3ccc(OCc4ccccn4)c(Cl)c3)c2cc1NC(=O)/C=C/CN(C)C [Neratinib]
[9]; read-out: Avg IC50 (μM)
  IC50: 0.619 µM
[9]
  Avg SI: >100

## Cc1[nH]c2ccccc2c1CCNCc1ccc(/C=C/C(=O)NO)cc1 [Panobinostat]
[3]; oral administration, read-out: Cmax human plasma concentration, range
  Cmax: 38 to 119 nM
[3]; oral administration, read-out: median Cmax human plasma concentration
  Cmax: 61 nM
[11]
  IC50: 224 nM
[8]; Homo sapiens, read-out: IC50 for the ovarian lines
  IC50: 343 nM
[12]
  IC50: 516 nM
[1]; [16]
  IC90: 719 nM
[1]; toxic compounds, average over all cancer cell lines, 48 h, mean ± S.D., read-out: Average IC50
  IC50: 0.355 ± 0.268 µM
[1]
  Cell Lines Active: 11
[1]; toxic compounds, selectivity index vs HEK 293T, average over all cancer cell lines, mean ± S.D.
  Average SI: 0.92 ± 0.57
[13]
  Efficacy (%) (independent screen, HEK 293T): 85.5%
  Independent Screen (confirmation of HEK 293T toxicity): Confirmed toxic
[13]; independent screen
  IC50: 162 nM
[14]; HEK 293T, this screen (ATPlite)
  Efficacy (%) (HEK 293T toxicity): 82.6%
[14]; Homo sapiens, HEK-293T, read-out: IC50 (HEK 293T toxicity)
  IC50: 210 nM
[14]; human
  toxicity to HEK 293T cells: equally toxic to HEK 293T cells
